Results taken from patent publication US9549884B2, “Retinoid derivatives and process for their preparation” (SELEGO AB, priority 2013, dated 2017).
Values after ≈ are worked out from the molar mass of the structure shown.

Tests used:
[1] = Storage stability study checked by HPLC; type: physicochemical; details: 0-4° C., 40-90% humidity
Protocol: A comparison in stability between Compound (Ia) and the substance retin-15-yl ester retinoic acid (CAS No. 15498-86-9) was outlined by performing HPCL analysis of the two compounds throughout an extended storage period.
The stability study was performed at 0-4° C. and 40-90% humidity. The samples of each product, packed in polyethylene bag inside a closed polyethylene box, were maintained under the above mentioned condition for the given time (see below). The stability of the product was checked by HPLC analysis using the method reported here below: A Young Lin YL9100 HPLC System was equipped with a variable volume automatic injector and a YL-Clarity data system. A Capcellpack UG 120 C-18, 150×4.6 mm, 5 μm, column from Agilent Technologies was used with a column temperature of 25±2° C., a flow rate of 1.5 ml/min, an injection volume of 10 μl, a wavelength of 326 nm. The mobile phase was A: water containing 0.1% acetic acid; B: acetonitrile containing 0.1% acetic acid; C: methanol containing 0.1% acetic acid; and D: isopropanol. For a run time of 40 min the gradient was: […]
The Working Solution: dissolve the sample under stability study in acetonitrile in a concentration of 1 mg/ml and inject as it.
With reference to FIG. 1 and FIG. 2, the HPLC peaks with the highest area percentage (retention time 26.1 for Compound (1a) and 12.2 for retin-15-yl ester retinoic acid).

[2] = In vitro skin corrosion membrane barrier test (CORROSITEX Assay)
Protocol: The skin corrosive potential of compound (1a) was analyzed. Corrosive chemicals are dependent on their grade of corrosivity able to break through the bio-barrier membrane employed in the “in vitro Membrane barrier test (CORROSITEX® Assay)” (see EVCAM (2000) ESAC statement on the application of the Corrositex® assay for skin corrosivity testing. The test system is composed of a synthetic bio-barrier that is placed on a chemical detection system (CDS). The time necessary to activate the CDS allows to distinguish between Corrosive© and non-corrosive (NC) test substances. Hereby the test item was placed atop the bio-barrier membranes. The CDS activation was assessed as a color change or a change in consistency. […] Compound (1a) accordingly was classified as non-corrosive.

[3] = Highest soluble concentration in DMSO; type: physicochemical; details: organic solvent or mixture
[4] = test system: reconstituted three-dimensional human epidermis model (EPISKIN-SM); assay: In vitro skin irritation test, EPISKIN-Standard Model, MTT; type: cell-based
Protocol: The skin irritant potential of compound (1a) was analyzed with a reconstituted three-dimensional human epidermis model, the EPISKIN-Standard Model® (EPISKIN-SM®) as a replacement for the Draize Skin Irritation Test (OECD TG 404) to distinguish between UN GHS “Category 2” skin irritating test substances and not categorized test substances (“No Category”) which may be considered as non-irritant. Hereby, the test item was applied topically. Cytotoxicity is expressed as reduction of mitochondrial dehydrogenase activity measured by formazan production from MTT after a 15 min exposure and 42 h post incubation period and compared to those of the concurrent negative controls.
The relative mean tissue viability after 15 min of exposure and 42 h post incubation was >50%. The test item, compound (1a) is therefore classified as “non-irritant” in accordance with UN GHS “No Category”.

BALB/c 3T3 cells = assay: In vitro phototoxicity test, neutral red uptake with and without UVA; type: cell-based
Protocol: In the present study the phototoxicity effects of compound (1a) were analyzed by dissolving the test item in DMSO and diluting to 1.100 ratio with Earle's balanced test solution. BALB/C 3T3 cells were treated for 1 h with different concentrations of the test solution at 37±1±° C. and further 50 min in absence and in presence of a non-toxic dose of UVA light, respectively. One day after treatment cytotoxicity was analyzed as a measure of reduction of neutral red uptake and compared to the controls. […] However, since the calculated mean photo effect (MPE) is <0.1 (0.027 in a rangefinder experiment; 0.056 in the main experiment) the test item is classified as non-toxic.

Row | SMILES | stability (HPLC) ([1]; after about two months) | skin corrosivity classification [2] | mean time required to activate the CDS ([2]; Corrositex bio-barrier membrane) | solubility [3] | relative mean tissue viability ([4]; 15 min exposure, 42 h post incubation) | skin irritation classification (UN GHS) ([4]; UN GHS No Category) | phototoxicity classification (BALB/c 3T3 cells; MPE <0.1) | cytotoxic effect with UVA radiation (BALB/c 3T3 cells; in case of UVA radiation) | mean photo effect (MPE) (BALB/c 3T3 cells; main experiment) | mean photo effect (MPE) (BALB/c 3T3 cells; rangefinder experiment) | decrease of purity with respect to the starting time (HPLC) ([1]; in one month)
1 | CC1=C(/C=C/C(C)=C/C=C/C(C)=C/C(=O)OCCNC(=O)c2cccnc2)C(C)(C)CCC1 [Compound (1a), 2-(nicotinamido)-ethyl retinoate] | practically stable | non-corrosive | > 60 min | 2000 µg/mL (≈ 4.46 mM) | > 50% | non-irritant | non-toxic | slight cytotoxic effect | 0.056 | 0.027 | 
2 | CC1=C(/C=C/C(C)=C/C=C/C(C)=C/COC(=O)/C=C(C)/C=C/C=C(C)/C=C/C2=C(C)CCCC2(C)C)C(C)(C)CCC1 [retin-15-yl ester retinoic acid, reference compound] |  |  |  |  |  |  |  |  |  |  | 5%
